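Dose response: 5 concentrations. Exposure: 48 h. Format: 96-well plates. Endpoint: linear interpolation; highest concentration if not reached. At the TGI there is no net growth.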
How the values were obtained:
Assay in all cases: DTP human tumour cell line panel, 48 h
SF-295 CNS = tested on: SF-295 CNS
SW-620 colon = tested on: SW-620 colon
PC-3 prostate = tested on: PC-3 prostate
UO-31 renal = tested on: UO-31 renal
NCI-H460 lung = tested on: NCI-H460 lung
COLO 205 colon = tested on: COLO 205 colon
MOLT-4 leukemia = tested on: MOLT-4 leukemia
LOX IMVI melanoma = tested on: LOX IMVI melanoma
IGROV1 ovarian = tested on: IGROV1 ovarian
HOP-92 NSCLC = tested on: HOP-92 NSCLC
RXF 393 renal = tested on: RXF 393 renal
HS 578T breast = tested on: HS 578T breast
HCT-116 colon = tested on: HCT-116 colon
OVCAR-8 ovarian = tested on: OVCAR-8 ovarian
MDA-MB-435 = tested on: MDA-MB-435
K-562 leukemia = tested on: K-562 leukemia
DU-145 prostate = tested on: DU-145 prostate
U251 CNS = tested on: U251 CNS
ACHN renal = tested on: ACHN renal
EKVX NSCLC = tested on: EKVX NSCLC
CAKI-1 renal = tested on: CAKI-1 renal
TK-10 renal = tested on: TK-10 renal
A549 NSCLC = tested on: A549 NSCLC
OVCAR-5 ovarian = tested on: OVCAR-5 ovarian
KM12 colon = tested on: KM12 colon
SK-MEL-5 melanoma = tested on: SK-MEL-5 melanoma
SK-OV-3 ovarian = tested on: SK-OV-3 ovarian
HL-60(TB) leukemia = tested on: HL-60(TB) leukemia
SK-MEL-28 melanoma = tested on: SK-MEL-28 melanoma
HCT-15 colon = tested on: HCT-15 colon
SN12C renal = tested on: SN12C renal
CCRF-CEM leukemia = tested on: CCRF-CEM leukemia
NCI-H226 lung = tested on: NCI-H226 lung
HOP-62 NSCLC = tested on: HOP-62 NSCLC
SNB-75 CNS = tested on: SNB-75 CNS
UACC-62 melanoma = tested on: UACC-62 melanoma
M14 melanoma = tested on: M14 melanoma
MALME-3M melanoma = tested on: MALME-3M melanoma
HCC-2998 colon = tested on: HCC-2998 colon
A498 renal = tested on: A498 renal
SNB-19 CNS = tested on: SNB-19 CNS
NCI-H522 lung = tested on: NCI-H522 lung
OVCAR-4 ovarian = tested on: OVCAR-4 ovarian
HT29 colon = tested on: HT29 colon
T-47D breast = tested on: T-47D breast
MDA-N = tested on: MDA-N
BT-549 breast = tested on: BT-549 breast
NCI-H23 lung = tested on: NCI-H23 lung
786-0 renal = tested on: 786-0 renal
NCI/ADR-RES ovarian = tested on: NCI/ADR-RES ovarian
UACC-257 melanoma = tested on: UACC-257 melanoma
OVCAR-3 ovarian = tested on: OVCAR-3 ovarian
SF-268 CNS = tested on: SF-268 CNS
RPMI-8226 leukemia = tested on: RPMI-8226 leukemia
SF-539 CNS = tested on: SF-539 CNS
SR leukemia = tested on: SR leukemia
MDA-MB-231 breast = tested on: MDA-MB-231 breast
MCF7 breast = tested on: MCF7 breast
SK-MEL-2 melanoma = tested on: SK-MEL-2 melanoma

## C(=C\N1CCCCC1)/c1nnnn1-c1ccccc1
SF-295 CNS
  TGI: 66.9 µM
SW-620 colon
  TGI: > 100 µM
PC-3 prostate
  TGI: > 100 µM
UO-31 renal
  TGI: > 100 µM
NCI-H460 lung
  TGI: > 100 µM
COLO 205 colon
  TGI: > 100 µM
MOLT-4 leukemia
  TGI: 41.9 µM
LOX IMVI melanoma
  TGI: 50.9 µM
IGROV1 ovarian
  TGI: 82.8 µM
HOP-92 NSCLC
  TGI: > 100 µM
RXF 393 renal
  TGI: 56.6 µM
HS 578T breast
  TGI: 49.4 µM
HCT-116 colon
  TGI: > 100 µM
OVCAR-8 ovarian
  TGI: 95 µM
MDA-MB-435
  TGI: 66.1 µM
K-562 leukemia
  TGI: > 100 µM
DU-145 prostate
  TGI: > 100 µM
U251 CNS
  TGI: 80.3 µM
ACHN renal
  TGI: > 100 µM
EKVX NSCLC
  TGI: 63.1 µM
CAKI-1 renal
  TGI: 38.2 µM
TK-10 renal
  TGI: > 100 µM
A549 NSCLC
  TGI: > 100 µM
OVCAR-5 ovarian
  TGI: > 100 µM
KM12 colon
  TGI: > 100 µM
SK-MEL-5 melanoma
  TGI: 58.9 µM
SK-OV-3 ovarian
  TGI: 63.3 µM
HL-60(TB) leukemia
  TGI: 37.7 µM
SK-MEL-28 melanoma
  TGI: > 100 µM
HCT-15 colon
  TGI: > 100 µM
SN12C renal
  TGI: > 100 µM
CCRF-CEM leukemia
  TGI: 61.1 µM
NCI-H226 lung
  TGI: > 100 µM
HOP-62 NSCLC
  TGI: > 100 µM
SNB-75 CNS
  TGI: 69.7 µM
UACC-62 melanoma
  TGI: 54.5 µM
M14 melanoma
  TGI: 38.5 µM
MALME-3M melanoma
  TGI: > 100 µM
HCC-2998 colon
  TGI: > 100 µM
A498 renal
  TGI: > 100 µM
SNB-19 CNS
  TGI: > 100 µM
NCI-H522 lung
  TGI: > 100 µM
OVCAR-4 ovarian
  TGI: > 100 µM
HT29 colon
  TGI: > 100 µM
T-47D breast
  TGI: 76.3 µM
MDA-N
  TGI: > 100 µM
BT-549 breast
  TGI: > 100 µM
NCI-H23 lung
  TGI: > 100 µM
786-0 renal
  TGI: > 100 µM
NCI/ADR-RES ovarian
  TGI: 64.5 µM
UACC-257 melanoma
  TGI: > 100 µM
OVCAR-3 ovarian
  TGI: 90.6 µM
SF-268 CNS
  TGI: 84 µM
RPMI-8226 leukemia
  TGI: 59.6 µM
SF-539 CNS
  TGI: 76.6 µM
SR leukemia
  TGI: 55 µM
MDA-MB-231 breast
  TGI: 61.6 µM

## COc1cc(C2c3cc4c(cc3OC(NCCO)C2C)OCO4)cc(OC)c1OC (stereo not given)
SW-620 colon
  TGI: > 100 µM
PC-3 prostate
  TGI: > 100 µM
UO-31 renal
  TGI: > 76.4 µM
NCI-H460 lung
  TGI: > 100 µM
COLO 205 colon
  TGI: 12.3 µM
MOLT-4 leukemia
  TGI: 26.3 µM
LOX IMVI melanoma
  TGI: > 100 µM
IGROV1 ovarian
  TGI: > 100 µM
HOP-92 NSCLC
  TGI: 93 µM
RXF 393 renal
  TGI: > 100 µM
HS 578T breast
  TGI: > 100 µM
HCT-116 colon
  TGI: > 100 µM
OVCAR-8 ovarian
  TGI: > 100 µM
MDA-MB-435
  TGI: 0.463 µM
DU-145 prostate
  TGI: > 100 µM
U251 CNS
  TGI: 12.5 µM
ACHN renal
  TGI: > 91.5 µM
EKVX NSCLC
  TGI: > 100 µM
CAKI-1 renal
  TGI: > 54.3 µM
TK-10 renal
  TGI: > 96.3 µM
A549 NSCLC
  TGI: > 100 µM
OVCAR-5 ovarian
  TGI: > 100 µM
KM12 colon
  TGI: > 70.2 µM
SK-MEL-5 melanoma
  TGI: 13.4 µM
SK-OV-3 ovarian
  TGI: > 100 µM
SK-MEL-28 melanoma
  TGI: > 100 µM
HCT-15 colon
  TGI: > 34.8 µM
SN12C renal
  TGI: > 100 µM
NCI-H226 lung
  TGI: 9.84 µM
HOP-62 NSCLC
  TGI: 9.03 µM
SNB-75 CNS
  TGI: > 71.7 µM
MCF7 breast
  TGI: > 100 µM
UACC-62 melanoma
  TGI: > 100 µM
M14 melanoma
  TGI: > 45 µM
MALME-3M melanoma
  TGI: > 100 µM
HCC-2998 colon
  TGI: > 23.2 µM
A498 renal
  TGI: 2.81 µM
SNB-19 CNS
  TGI: > 100 µM
NCI-H522 lung
  TGI: 1.62 µM
OVCAR-4 ovarian
  TGI: > 100 µM
HT29 colon
  TGI: 21.4 µM
T-47D breast
  TGI: > 100 µM
MDA-N
  TGI: 0.5 µM
BT-549 breast
  TGI: > 100 µM
NCI-H23 lung
  TGI: > 100 µM
SK-MEL-2 melanoma
  TGI: > 100 µM
786-0 renal
  TGI: > 100 µM
NCI/ADR-RES ovarian
  TGI: > 100 µM
UACC-257 melanoma
  TGI: > 100 µM
OVCAR-3 ovarian
  TGI: 0.603 µM
SF-268 CNS
  TGI: > 84.9 µM
RPMI-8226 leukemia
  TGI: > 34 µM
SF-539 CNS
  TGI: 0.635 µM
MDA-MB-231 breast
  TGI: > 100 µM

## CC(C)C1N(C)c2ccc(Cl)cc2[C@H]2c3ccccc3CCN12 (stereo not given in full)
SF-295 CNS
  TGI: > 100 µM
SW-620 colon
  TGI: > 100 µM
PC-3 prostate
  TGI: > 100 µM
UO-31 renal
  TGI: > 100 µM
NCI-H460 lung
  TGI: > 100 µM
COLO 205 colon
  TGI: > 100 µM
MOLT-4 leukemia
  TGI: > 100 µM
LOX IMVI melanoma
  TGI: 55.7 µM
IGROV1 ovarian
  TGI: > 100 µM
HOP-92 NSCLC
  TGI: > 100 µM
RXF 393 renal
  TGI: > 100 µM
HS 578T breast
  TGI: 82.1 µM
HCT-116 colon
  TGI: > 100 µM
OVCAR-8 ovarian
  TGI: > 100 µM
MDA-MB-435
  TGI: 61.6 µM
K-562 leukemia
  TGI: > 100 µM
DU-145 prostate
  TGI: > 100 µM
U251 CNS
  TGI: > 100 µM
ACHN renal
  TGI: > 100 µM
EKVX NSCLC
  TGI: > 100 µM
TK-10 renal
  TGI: > 100 µM
A549 NSCLC
  TGI: > 100 µM
OVCAR-5 ovarian
  TGI: > 100 µM
KM12 colon
  TGI: > 100 µM
SK-OV-3 ovarian
  TGI: > 100 µM
HL-60(TB) leukemia
  TGI: > 100 µM
SK-MEL-28 melanoma
  TGI: > 100 µM
HCT-15 colon
  TGI: > 100 µM
SN12C renal
  TGI: > 100 µM
CCRF-CEM leukemia
  TGI: > 100 µM
NCI-H226 lung
  TGI: 67.9 µM
HOP-62 NSCLC
  TGI: > 100 µM
SNB-75 CNS
  TGI: > 100 µM
MCF7 breast
  TGI: > 100 µM
UACC-62 melanoma
  TGI: > 100 µM
M14 melanoma
  TGI: > 100 µM
A498 renal
  TGI: > 100 µM
SNB-19 CNS
  TGI: > 100 µM
NCI-H522 lung
  TGI: 88.2 µM
OVCAR-4 ovarian
  TGI: > 100 µM
HT29 colon
  TGI: 90.7 µM
MDA-N
  TGI: 92 µM
BT-549 breast
  TGI: > 100 µM
NCI-H23 lung
  TGI: > 100 µM
SK-MEL-2 melanoma
  TGI: 74.1 µM
786-0 renal
  TGI: > 100 µM
NCI/ADR-RES ovarian
  TGI: > 100 µM
UACC-257 melanoma
  TGI: 90.3 µM
OVCAR-3 ovarian
  TGI: 70.3 µM
SF-268 CNS
  TGI: > 100 µM
RPMI-8226 leukemia
  TGI: 79.8 µM
SF-539 CNS
  TGI: > 100 µM
SR leukemia
  TGI: > 100 µM
MDA-MB-231 breast
  TGI: 96.2 µM

— PubChem BioAssay (NCI)
